Test results from PMC12388125, “Design, Synthesis, and Pharmacological Activity of the N-(4-(1H-1,2,4-Triazol-1-yl)phenyl)-substituted-amide Derivatives” (Molecules, 2025).
Read-outs that look alike come from different tables or passages of the source.

Columns and labels:
mice [1] = test: Rotarod (ROT) neurotoxicity test; conditions: for NT (neurotoxicity, ROT), dose at which at least one of three animals showed neurotoxicity: doses 100, 300 mg/kg; for TD50 (ROT): 0.5 h, value (95% CI)
Protocol: The neurotoxicity of the target compounds was tested using the ROT experimental model, which was divided into two dose groups, 100 and 300 mg/kg, and tested after 0.5 and 4 h of administration, respectively.
The neurotoxicity of the target compounds was determined using the ROT experimental model.
The neurotoxicity of the compounds wa s measured in mice using the rotarod test. Mice
we r e trained to stay on an accelerating rotarod (diameter, 3.2 cm) rotating at 10 rpm. Trained
animals we r e injected with the test compounds (i.p.) and neurotoxicity wa s measured as the
inability of the animal to maintain equilibrium on the rod for at least 1 min in each of the

MES-induced seizures = test: animal or person; format: in vivo, Kunming mice; conditions: for minimal effective dose: Mus musculus, ip, doses 30, 100, 300 mg/kg, read-out: MES, dose at which at least one of three animals was protected; for ED50 (MES) / PI (TD50/ED50) MES: 0.5 h; for ED50 (MES): value (95% CI); for PI (TD50/ED50) MES: Kunming, mouse, in vivo
Protocol: (§1) Pharmacological tests were performed using two experimental animal models, MES and scPTZ, which were divided into three dosage groups of 30, 100, and 300 mg/kg, and the anticonvulsant activity of the target compounds 6a–m and 9a–g, after 0.5 and 4 h of administration, respectively, were tested. Carbamazepine, which is effective in the MES model, was chosen as a positive control, and ethosuximide, which is effective in the scPTZ model, was chosen as a positive control. […]
Protection against the spread of
extension component of the seizure. […]

[2] = tested on: pentylenetetrazole-induced clonic seizures; test: animal or person; format: in vivo, Kunming mice; conditions: for minimal effective dose: Mus musculus, sc, read-out: scPTZ, dose at which at least one of three animals was protected; for minimal effective dose / scPTZ, dose at which at least one of three animals was protected: doses 30, 100, 300 mg/kg; for ED50 (scPTZ) / PI (TD50/ED50) scPTZ: 0.5 h; for ED50 (scPTZ): value (95% CI); for PI (TD50/ED50) scPTZ: Kunming, mouse, in vivo
Protocol: as §1
The test compound wa s
Absence of clonic spasms indicated a […]

mice [3] = test: Elevated plus maze (EPM) test; format: in vivo; conditions: 1 mg/kg, n = 6
Excerpt: The EPM experiment is a method for evaluating whether experimental animals have an anxiety response. The principle is that, in the face of new things, mice will generate curiosity to explore (open arm), while they have a nature of darkness (closed arm), the conflict behavior between the two occurs between exploration and avoidance, resulting in anxiety. Anxious behavior can be evaluated by comparing the retention time of mice in the open and closed arms.
Flumazenil is a selective BZ antagonist with a chemical structure similar to that of BZs, which acts on central benzodiazepine (BZ) receptors and thus blocks the receptors without producing BZ-like effects.
The apparatus consisted of a black acrylic maze with two opposite open arms (50×10 cm) and two opposite closed arms (50×10×40 cm) disposed like a plus sign with a central square of 10 cm2. Entire maze wa s elevated 50 cm above the floor. The test consisted in placing the rat in the central square of the maze facing one closed arm and allowing it to explore during 5 min. This procedure wa s performed in a quiet and dimly illuminated room. The scores analysed we r e the time spent in open and closed arms, and the number of entries to both […]
widely used as an anxiety index (time spent in open arms relative to the time spent in open […]
and closed arms). […]

Compound	NT (neurotoxicity, ROT), dose at which at least one of three animals showed neurotoxicity (mice [1]; 0.5 h after administration) [mg/kg]	NT (neurotoxicity, ROT), dose at which at least one of three animals showed neurotoxicity (mice [1]; 4 h after administration) [mg/kg]	minimal effective dose (MES-induced seizures; 0.5 h after administration) [mg/kg]	minimal effective dose (MES-induced seizures; 4 h after administration) [mg/kg]	minimal effective dose ([2]; 0.5 h after administration) [mg/kg]	minimal effective dose ([2]; 4 h after administration) [mg/kg]	scPTZ, dose at which at least one of three animals was protected ([2]; 4 h after administration)	TD50 (ROT) (mice [1])	ED50 (MES) (MES-induced seizures) [mg/kg]	PI (TD50/ED50) MES (MES-induced seizures)	ED50 (scPTZ) [2] [mg/kg]	PI (TD50/ED50) scPTZ [2]	EPM % of time in open arms vs control (mice [3])
O=C(Nc1ccc(-n2cncn2)cc1)c1ccccc1 [Compound 6a, N-(4-(1H-1,2,4-triazol-1-yl)phenyl)benzamide]	>300	>300	300	300	100	100							
O=C(Nc1ccc(-n2cncn2)cc1)c1ccccc1Cl [Compound 6b, N-(4-(1H-1,2,4-triazol-1-yl)phenyl)-2-chlorobenzamide]	>300	>300	300	100	100	300							
O=C(Nc1ccc(-n2cncn2)cc1)c1cccc(Cl)c1 [Compound 6c, N-(4-(1H-1,2,4-triazol-1-yl)phenyl)-3-chlorobenzamide]	>300	>300	100	300	100	100							
O=C(Nc1ccc(-n2cncn2)cc1)c1ccc(Cl)cc1 [Compound 6d, N-(4-(1H-1,2,4-triazol-1-yl)phenyl)-4-chlorobenzamide]	>300	>300	300	300	300	> 300	inactive						
O=C(Nc1ccc(-n2cncn2)cc1)c1ccccc1F [Compound 6e, N-(4-(1H-1,2,4-triazol-1-yl)phenyl)-2-fluorobenzamide]	>300	>300	100	100	100	100							
O=C(Nc1ccc(-n2cncn2)cc1)c1ccc(F)cc1 [Compound 6g, N-(4-(1H-1,2,4-triazol-1-yl)phenyl)-4-fluorobenzamide]	>300	>300	30	30	30	100		429.1 (466.4–394.7) mg	13.7	31.3	31.5	13.6	
O=C(Nc1ccc(-n2cncn2)cc1)c1ccccc1C(F)(F)F [Compound 6h, N-(4-(1H-1,2,4-triazol-1-yl)phenyl)-2-(trifluoromethyl)benzamide]	>300	>300	100	300	300	> 300	inactive						
O=C(Nc1ccc(-n2cncn2)cc1)c1cccc(C(F)(F)F)c1 [Compound 6i, N-(4-(1H-1,2,4-triazol-1-yl)phenyl)-3-(trifluoromethyl)benzamide]	>300	>300	30	30	30	100		381.4 (414.6–350.8) mg	21.9	17.4	22.8	16.7	
O=C(Nc1ccc(-n2cncn2)cc1)c1ccc(C(F)(F)F)cc1 [Compound 6j, N-(4-(1H-1,2,4-triazol-1-yl)phenyl)-4-(trifluoromethyl)benzamide]	>300	>300	100	300	100	100							
Cc1ccccc1C(=O)Nc1ccc(-n2cncn2)cc1 [Compound 6k, N-(4-(1H-1,2,4-triazol-1-yl)phenyl)-2-methylbenzamide]	>300	>300	30	100	100	300							
Cc1ccc(C(=O)Nc2ccc(-n3cncn3)cc2)cc1 [Compound 6m, N-(4-(1H-1,2,4-triazol-1-yl)phenyl)-4-methylbenzamide]	>300	>300	300	300	100	300							
CCC(=O)Nc1ccc(-n2cncn2)cc1 [Compound 9a, N-(4-(1H-1,2,4-triazol-1-yl)phenyl)propionamide]	>300	>300	100	300	100	100							
CCCC(=O)Nc1ccc(-n2cncn2)cc1 [Compound 9b, N-(4-(1H-1,2,4-triazol-1-yl)phenyl)butyramide]	300	>300	30	100	30	100							
CCCCC(=O)Nc1ccc(-n2cncn2)cc1 [Compound 9c, N-(4-(1H-1,2,4-triazol-1-yl)phenyl)pentanamide]	300	>300	30	30	30	100		260.0 (282.7–239.2) mg	17.3	15.0	35.5	7.3	
CCCCCC(=O)Nc1ccc(-n2cncn2)cc1 [Compound 9d, N-(4-(1H-1,2,4-triazol-1-yl)phenyl)hexanamide]	>300	>300	30	30	100	100							
CCCCCCC(=O)Nc1ccc(-n2cncn2)cc1 [Compound 9e, N-(4-(1H-1,2,4-triazol-1-yl)phenyl)heptanamide]	>300	>300	100	300	300	> 300							
CCCCCCCC(=O)Nc1ccc(-n2cncn2)cc1 [Compound 9f, N-(4-(1H-1,2,4-triazol-1-yl)phenyl)octanamide]	>300	>300	100	300	300	> 300							
CCCCCCCCC(=O)Nc1ccc(-n2cncn2)cc1 [Compound 9g, N-(4-(1H-1,2,4-triazol-1-yl)phenyl)nonanamide]	>300	>300	300	300	300	> 300							
CN1C(=O)CN=C(c2ccccc2)c2cc(Cl)ccc21 [Diazepam, reference compound]													showed a significant difference
